According to PMC10318822, “Phase 1 dose-escalation study to evaluate the safety, tolerability, pharmacokinetics, and anti-tumor activity of FCN-159 in adults with neurofibromatosis type 1-related unresectable plexiform neurofibromas” (BMC Medicine, 2023):

System: adult patients with NF1-related PN
Assay: Phase I dose-escalation: DLT, MTD, RP2D and drug-related TEAEs (CTCAE v5.0)
Procedure: This is a multicenter, open-label, single-arm, non-randomized, phase I dose-escalation trial to evaluate the safety, tolerability, pharmacokinetic (PK), and anti-tumor activity of orally administered FCN-159 in adult patients with NF1 (NCT04954001). Phase I commenced with dose escalation in adult patients following a standard 3 + 3 design (Supplementary Table S1) to determine the maximum tolerated dose (MTD) of FCN-159 administered daily under fasting conditions (defined as no food or drink 1 h before and 2 h after each dose) in 28-day cycles. Study drug was dispensed at the study site and patient adherence was monitored by the records of drug dispensation and return. Patients were on treatment until PD, death, patient's voluntary withdrawal from study treatment, or study termination. The study was followed for 2 years after the last patient in. The starting dose was 4 mg, escalating in cohorts of at least three evaluable patients at 6 mg, 8 mg, and 12 mg until the MTD was determined. The starting dose in this study was determined based on available data from a phase 1a, first-in-human study of FCN-159 in patients with advanced NRAS ^mut+ melanoma at the time of study design. […] Dose expansion at a likely RP2D level enrolled approximately six patients. The highest dose level with a dose-limiting toxicity (DLT) incidence rate ≤ 33% (0/3 or 1/6 patients) was to be considered the MTD. If patients experienced grade ≥ 3 and/or unacceptable toxic events that were considered as at least possibly related to the study treatment, the study treatment was discontinued and supportive treatment was given in accordance with local treatment routines. If the toxicity returned to grade ≤ 2 within 28 days after the occurrence, and there was no progression on patients’ conditions or the investigator believed that patients could benefit from the study treatment, the original dose could be maintained or reduced after discussion with medical monitor. After completion of the dose escalation part of the study, PK, efficacy, safety, and tolerability data were analyzed to select the RP2D.
Primary endpoints of the study were the DLT incidence rate, MTD, and RP2D. Secondary endpoints included other safety assessments, imaging tumor response (complete response [CR], PR, stable disease [SD], or progressive disease [PD]), and PK parameters of FCN-159. Adverse events were graded per CTCAE v5.0.
All patients underwent a complete medical history, physical examination, Eastern Cooperative Oncology Group (ECOG) assessment, and laboratory analysis of test results. Drug-related TEAEs, serious adverse events (SAEs), TEAEs of grade ≥ 3 toxicity, and TEAEs leading to drug discontinuation were reviewed on an ongoing basis. Efficacy was assessed by radiologic scans and clinical assessment. Tumor assessments per Response Evaluation in Neurofibromatosis Schwannomatosis criteria were performed by investigators using MRI volumetric analysis every 4 cycles within the first 2 years (± 7 days) and every 6 cycles after 2 years (± 14 days) until PD, death, patient's voluntary withdrawal from study treatment, or study termination. MRI sequences of […], T1- and T2-weighted sequences were chosen and the software of Extended Brilliance Workspace, SIGNA Premier and uExceed were used for MRI volumetric analysis. The same software was used for all tumor assessments at baseline and subsequent assessed timepoints of the same patient. Pain was assessed by an 11-point numerical rating scale (NRS-11).
The sample size for the dose-escalation study was estimated to be 24 based on the 3 + 3 method. Safety was analyzed in patients who received at least one dose of FCN-159 and had at least one safety assessment. DLT was assessed in the DLT analysis set, defined as patients who were enrolled in the dose-escalation study and met the DLT evaluation criteria.

Cn1c(=O)c(F)c(Nc2ccc(I)cc2F)c2c(=O)n(C3CC3)nc(-c3cccc(NS(=O)(=O)C4CC4)c3)c21 [FCN-159]
Drug-related TEAE: Decreased appetite (6 mg (N = 4)): 0 n (%) | Drug-related TEAE: Dermatitis acneiform (6 mg (N = 4)): 0 n (%) | Drug-related TEAE: Diarrhea (6 mg (N = 4)): 0 n (%) | Drug-related TEAE: Drug eruption (6 mg (N = 4)): 2 (50.0) n (%) | Drug-related TEAE: Dyslipidemia (6 mg (N = 4)): 0 n (%) | Drug-related TEAE: Ejection fraction decreased (6 mg (N = 4)): 0 n (%) | Drug-related TEAE: Electrocardiogram QT prolonged (6 mg (N = 4)): 0 n (%) | Drug-related TEAE: Electrocardiogram abnormal (6 mg (N = 4)): 0 n (%) | Drug-related TEAE: Epistaxis (6 mg (N = 4)): 0 n (%) | Drug-related TEAE: Folliculitis (6 mg (N = 4)): 1 (25.0) n (%) | Drug-related TEAE: Functional gastrointestinal disorder (6 mg (N = 4)): 0 n (%) | Drug-related TEAE: Gamma-glutamyltransferase increased (6 mg (N = 4)): 1 (25.0) n (%) | Drug-related TEAE: Gingival pain (6 mg (N = 4)): 0 n (%) | Drug-related TEAE: Hyperlipidemia (6 mg (N = 4)): 0 n (%) | Drug-related TEAE: Hypertension (6 mg (N = 4)): 0 n (%) | Drug-related TEAE: Hypoalbuminemia (6 mg (N = 4)): 0 n (%) | Drug-related TEAE: Hypocalcemia (6 mg (N = 4)): 1 (25.0) n (%) | Drug-related TEAE: Hypophosphatemia (6 mg (N = 4)): 0 n (%) | Drug-related TEAE: Hypoproteinemia (6 mg (N = 4)): 0 n (%) | Drug-related TEAE: Immunoglobulins increased (6 mg (N = 4)): 1 (25.0) n (%) | Drug-related TEAE: Impetigo (6 mg (N = 4)): 0 n (%) | Drug-related TEAE: Left atrial enlargement (6 mg (N = 4)): 0 n (%) | Drug-related TEAE: Lipoprotein abnormal (6 mg (N = 4)): 0 n (%) | Drug-related TEAE: Malaise (6 mg (N = 4)): 0 n (%) | Drug-related TEAE: Menstrual disorder (6 mg (N = 4)): 0 n (%) | Drug-related TEAE: Mitral valve incompetence (6 mg (N = 4)): 1 (25.0) n (%) | Drug-related TEAE: Mouth ulceration (6 mg (N = 4)): 0 n (%) | Drug-related TEAE: Muscular weakness (6 mg (N = 4)): 0 n (%) | Drug-related TEAE: Oedema peripheral (6 mg (N = 4)): 1 (25.0) n (%) | Drug-related TEAE: Pain in extremity (6 mg (N = 4)): 0 n (%) | Drug-related TEAE: Paronychia (6 mg (N = 4)): 2 (50.0) n (%) | Drug-related TEAE: Prealbumin decreased (6 mg (N = 4)): 0 n (%) | Drug-related TEAE: Protein urine present (6 mg (N = 4)): 2 (50.0) n (%) | Drug-related TEAE: Pruritus (6 mg (N = 4)): 0 n (%) | Drug-related TEAE: QRS axis abnormal (6 mg (N = 4)): 0 n (%) | Drug-related TEAE: Rash (6 mg (N = 4)): 1 (25.0) n (%) | Drug-related TEAE: Sinus arrhythmia (6 mg (N = 4)): 0 n (%) | Drug-related TEAE: Sinus bradycardia (6 mg (N = 4)): 0 n (%) | Drug-related TEAE: Sinusitis (6 mg (N = 4)): 0 n (%) | Drug-related TEAE: Skin exfoliation (6 mg (N = 4)): 0 n (%) | Drug-related TEAE: Specific gravity urine increased (6 mg (N = 4)): 2 (50.0) n (%) | Drug-related TEAE: Stomatitis (6 mg (N = 4)): 2 (50.0) n (%) | Drug-related TEAE: Supraventricular extrasystoles (6 mg (N = 4)): 0 n (%) | Drug-related TEAE: Total bile acids increased (6 mg (N = 4)): 2 (50.0) n (%) | Drug-related TEAE: Tricuspid valve incompetence (6 mg (N = 4)): 1 (25.0) n (%) | Drug-related TEAE: Urinary occult blood positive (6 mg (N = 4)): 1 (25.0) n (%) | Drug-related TEAE: Urinary sediment present (6 mg (N = 4)): 0 n (%) | Drug-related TEAE: Urinary tract infection (6 mg (N = 4)): 1 (25.0) n (%) | Drug-related TEAE: Urine ketone body present (6 mg (N = 4)): 0 n (%) | Drug-related TEAE: Urobilinogen urine increased (6 mg (N = 4)): 2 (50.0) n (%) | Drug-related TEAE: Urticaria (6 mg (N = 4)): 0 n (%) | Drug-related TEAE: Vision blurred (6 mg (N = 4)): 0 n (%) | Drug-related TEAE: Visual acuity reduced (6 mg (N = 4)): 1 (25.0) n (%) | Drug-related TEAE: pH urine decreased (6 mg (N = 4)): 1 (25.0) n (%) | Drug-related TEAE: pH urine increased (6 mg (N = 4)): 0 n (%) | Subjects with any drug-related TEAE (6 mg (N = 4)): 4 (100) n (%) | Drug-related TEAE: Abdominal pain (8 mg (N = 8)): 1 (12.5) n (%) | Drug-related TEAE: Acne (8 mg (N = 8)): 0 n (%) | Drug-related TEAE: Acne pustular (8 mg (N = 8)): 1 (12.5) n (%) | Drug-related TEAE: Alanine aminotransferase increased (8 mg (N = 8)): 1 (12.5) n (%) | Drug-related TEAE: Albumin globulin ratio decreased (8 mg (N = 8)): 1 (12.5) n (%) | Drug-related TEAE: Alopecia (8 mg (N = 8)): 1 (12.5) n (%) | Drug-related TEAE: Amylase increased (8 mg (N = 8)): 0 n (%) | Drug-related TEAE: Anemia (8 mg (N = 8)): 1 (12.5) n (%) | Drug-related TEAE: Aortic dilatation (8 mg (N = 8)): 1 (12.5) n (%) | Drug-related TEAE: Aspartate aminotransferase increased (8 mg (N = 8)): 0 n (%) | Drug-related TEAE: Asthenia (8 mg (N = 8)): 0 n (%) | Drug-related TEAE: Beta globulin decreased (8 mg (N = 8)): 0 n (%) | Drug-related TEAE: Beta globulin increased (8 mg (N = 8)): 0 n (%) | Drug-related TEAE: Blood alkaline phosphatase increased (8 mg (N = 8)): 3 (37.5) n (%) | Drug-related TEAE: Blood bilirubin increased (8 mg (N = 8)): 2 (25.0) n (%) | Drug-related TEAE: Blood creatine phosphokinase increased (8 mg (N = 8)): 2 (25.0) n (%) | Drug-related TEAE: Blood fibrinogen increased (8 mg (N = 8)): 0 n (%) | Drug-related TEAE: Blood lactate dehydrogenase increased (8 mg (N = 8)): 1 (12.5) n (%) | Drug-related TEAE: Blood pressure increased (8 mg (N = 8)): 0 n (%) | Drug-related TEAE: Blood urea increased (8 mg (N = 8)): 1 (12.5) n (%) | Drug-related TEAE: Blood uric acid increased (8 mg (N = 8)): 0 n (%) | Drug-related TEAE: Breath odor (8 mg (N = 8)): 1 (12.5) n (%) | Drug-related TEAE: Capillary disorder (8 mg (N = 8)): 0 n (%) | Drug-related TEAE: Constipation (8 mg (N = 8)): 1 (12.5) n (%) | Drug-related TEAE: Decreased appetite (8 mg (N = 8)): 1 (12.5) n (%) | Drug-related TEAE: Dermatitis acneiform (8 mg (N = 8)): 1 (12.5) n (%) | Drug-related TEAE: Diarrhea (8 mg (N = 8)): 1 (12.5) n (%) | Drug-related TEAE: Drug eruption (8 mg (N = 8)): 2 (25.0) n (%) | Drug-related TEAE: Dyslipidemia (8 mg (N = 8)): 1 (12.5) n (%) | Drug-related TEAE: Ejection fraction decreased (8 mg (N = 8)): 1 (12.5) n (%) | Drug-related TEAE: Electrocardiogram QT prolonged (8 mg (N = 8)): 1 (12.5) n (%) | Drug-related TEAE: Electrocardiogram abnormal (8 mg (N = 8)): 0 n (%) | Drug-related TEAE: Epistaxis (8 mg (N = 8)): 1 (12.5) n (%) | Drug-related TEAE: Folliculitis (8 mg (N = 8)): 4 (50.0) n (%) | Drug-related TEAE: Functional gastrointestinal disorder (8 mg (N = 8)): 1 (12.5) n (%) | Drug-related TEAE: Gamma-glutamyltransferase increased (8 mg (N = 8)): 0 n (%) | Drug-related TEAE: Gingival pain (8 mg (N = 8)): 1 (12.5) n (%) | Drug-related TEAE: Hyperlipidemia (8 mg (N = 8)): 0 n (%) | Drug-related TEAE: Hypertension (8 mg (N = 8)): 1 (12.5) n (%) | Drug-related TEAE: Hypoalbuminemia (8 mg (N = 8)): 1 (12.5) n (%) | Drug-related TEAE: Hypocalcemia (8 mg (N = 8)): 1 (12.5) n (%) | Drug-related TEAE: Hypophosphatemia (8 mg (N = 8)): 1 (12.5) n (%) | Drug-related TEAE: Hypoproteinemia (8 mg (N = 8)): 1 (12.5) n (%) | Drug-related TEAE: Immunoglobulins increased (8 mg (N = 8)): 1 (12.5) n (%) | Drug-related TEAE: Impetigo (8 mg (N = 8)): 0 n (%) | Drug-related TEAE: Left atrial enlargement (8 mg (N = 8)): 1 (12.5) n (%) | Drug-related TEAE: Lipoprotein abnormal (8 mg (N = 8)): 0 n (%) | Drug-related TEAE: Malaise (8 mg (N = 8)): 0 n (%) | Drug-related TEAE: Menstrual disorder (8 mg (N = 8)): 0 n (%) | Drug-related TEAE: Mitral valve incompetence (8 mg (N = 8)): 2 (25.0) n (%)
